# Reference: PubChem BioAssay AID272 (DTP/NCI, 2004)
# Several values for one entry are separate records, joined by “and”; a condition that tells them apart may be missing. Equal values may be shown once. Inconclusive results are not listed.
# System: Lewis lung carcinoma i.m., BDF1 mice, T/C %
# Experiment: NCI In Vivo Anticancer Drug Screen. Data for tumor model Lewis Lung Carcinoma (intramuscular) in B6D2F1 (BDF1) mice
# In short: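 Mice carrying transplantable tumours received test compound. Survival or tumour size was recorded and expressed as the treated-group value (T) divided by the vehicle-treated control-group value (C).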
# [1] = endpoint: median survival time, dose: 12.5 mg/kg/injection, schedule: Q01DX011 (ip), vehicle: saline with Tween-80, higher = longer survival
compound,measurement,setting,value
O=C1CN=C(c2ccc[nH]2)c2cc(Cl)ccc2N1,T/C,"endpoint: mean tumor weight, dose: 6.25 mg/kg/injection, schedule: Q01DX011 (ip), vehicle: Klucel (hydroxypropylcellulose) (HPC), higher = larger tumour",74 % of control
same,T/C,"endpoint: mean tumor weight, dose: 12.5 mg/kg/injection, schedule: Q01DX011 (ip), vehicle: Klucel (hydroxypropylcellulose) (HPC), higher = larger tumour",111 % of control
same,T/C,"endpoint: mean tumor weight, dose: 25.0 mg/kg/injection, schedule: Q01DX011 (ip), vehicle: Klucel (hydroxypropylcellulose) (HPC), higher = larger tumour",82 % of control
same,T/C,"endpoint: mean tumor weight, dose: 50.0 mg/kg/injection, schedule: Q01DX011 (ip), vehicle: Klucel (hydroxypropylcellulose) (HPC), higher = larger tumour",96 % of control
same,T/C,"endpoint: mean tumor weight, dose: 100.0 mg/kg/injection, schedule: Q01DX011 (ip), vehicle: Klucel (hydroxypropylcellulose) (HPC), higher = larger tumour",95 % of control
same,T/C,"endpoint: median survival time, dose: 6.25 mg/kg/injection, schedule: Q01DX011 (ip), vehicle: Klucel (hydroxypropylcellulose) (HPC), higher = longer survival",97 % of control
same,T/C,"endpoint: median survival time, dose: 12.5 mg/kg/injection, schedule: Q01DX011 (ip), vehicle: Klucel (hydroxypropylcellulose) (HPC), higher = longer survival",100 % of control
same,T/C,"endpoint: median survival time, dose: 25.0 mg/kg/injection, schedule: Q01DX011 (ip), vehicle: Klucel (hydroxypropylcellulose) (HPC), higher = longer survival",88 % of control and 111 % of control
same,T/C,"endpoint: median survival time, dose: 50.0 mg/kg/injection, schedule: Q01DX011 (ip), vehicle: Klucel (hydroxypropylcellulose) (HPC), higher = longer survival",102 % of control
same,T/C,"endpoint: median survival time, dose: 100.0 mg/kg/injection, schedule: Q01DX011 (ip), vehicle: Klucel (hydroxypropylcellulose) (HPC), higher = longer survival",100 % of control
CCCCCCCCCCCCCCCC(=O)N(C/C=C/CN(CCCN(C)C)C(=O)CCCCCCCCCCCCCCC)CCCN(C)C,T/C,"endpoint: mean tumor weight (est.), dose: 12.5 mg/kg/injection, schedule: Q01DX011 (ip), vehicle: saline with Tween-80, higher = larger tumour",44 % of control
same,T/C,[1],92 % of control
COc1ccc2c(Nc3ccc(NS(C)(=O)=O)cc3)c3ccccc3nc2c1,T/C,"endpoint: mean tumor weight, dose: 12.5 mg/kg/injection, schedule: Q01DX011 (ip), vehicle: saline with Tween-80, higher = larger tumour",52 % of control
same,T/C,[1],107 % of control
C[C@]12CC[C@H](OC3OC(CO)C(O)C(O)C3O)C[C@H]1CC[C@@H]1[C@@H]2CC[C@]2(C)[C@@H](C3=CCOC3=O)CC[C@]12O (stereo partly specified),T/C,"endpoint: median survival time, dose: 0.25 mg/kg/injection, schedule: Q01DX011 (ip), vehicle: saline, higher = longer survival",110 % of control
CC(C)NCC(O)COc1cccc2ccccc12 (stereo unspecified),T/C,"endpoint: median survival time, dose: 8.0 mg/kg/injection, schedule: Q01DX009 (ip), vehicle: Klucel (hydroxypropylcellulose) (HPC), higher = longer survival",121 % of control
same,T/C,"endpoint: median survival time, dose: 16.0 mg/kg/injection, schedule: Q01DX009 (ip), vehicle: Klucel (hydroxypropylcellulose) (HPC), higher = longer survival",121 % of control
same,T/C,"endpoint: median survival time, dose: 32.0 mg/kg/injection, schedule: Q01DX009 (ip), vehicle: Klucel (hydroxypropylcellulose) (HPC), higher = longer survival",90 % of control
same,T/C,"endpoint: median survival time, dose: 64.0 mg/kg/injection, schedule: Q01DX009 (ip), vehicle: Klucel (hydroxypropylcellulose) (HPC), higher = longer survival",110 % of control
O=C(C[n+]1cc(Br)cc2ccccc21)c1ccc(O)c(O)c1,T/C,"endpoint: mean tumor weight (est.), dose: 28.75 mg/kg/injection, schedule: Q01DX011 (ip), vehicle: saline, higher = larger tumour",90 % of control
same,T/C,"endpoint: mean tumor weight (est.), dose: 57.5 mg/kg/injection, schedule: Q01DX011 (ip), vehicle: saline, higher = larger tumour",95 % of control
same,T/C,"endpoint: mean tumor weight (est.), dose: 115.0 mg/kg/injection, schedule: Q01DX011 (ip), vehicle: saline, higher = larger tumour",63 % of control
same,T/C,"endpoint: mean tumor weight (est.), dose: 230.0 mg/kg/injection, schedule: Q01DX011 (ip), vehicle: saline, higher = larger tumour",52 % of control
C(=C\c1ccccc1)/C[P+](c1ccccc1)(c1ccccc1)c1ccccc1,T/C,"endpoint: mean tumor weight (est.), dose: 0.6 mg/kg/injection, schedule: Q01DX011 (ip), vehicle: saline, higher = larger tumour",101 % of control
same,T/C,"endpoint: mean tumor weight (est.), dose: 1.25 mg/kg/injection, schedule: Q01DX011 (ip), vehicle: saline, higher = larger tumour",100 % of control
same,T/C,"endpoint: mean tumor weight (est.), dose: 2.5 mg/kg/injection, schedule: Q01DX011 (ip), vehicle: saline, higher = larger tumour",105 % of control
same,T/C,"endpoint: mean tumor weight (est.), dose: 5.0 mg/kg/injection, schedule: Q01DX011 (ip), vehicle: saline, higher = larger tumour",93 % of control
same,T/C,"endpoint: median survival time, dose: 0.6 mg/kg/injection, schedule: Q01DX011 (ip), vehicle: saline, higher = longer survival",98 % of control
same,T/C,"endpoint: median survival time, dose: 1.25 mg/kg/injection, schedule: Q01DX011 (ip), vehicle: saline, higher = longer survival",107 % of control
same,T/C,"endpoint: median survival time, dose: 2.5 mg/kg/injection, schedule: Q01DX011 (ip), vehicle: saline, higher = longer survival",98 % of control
same,T/C,"endpoint: median survival time, dose: 5.0 mg/kg/injection, schedule: Q01DX011 (ip), vehicle: saline, higher = longer survival",100 % of control
O=C1CN(CCN2CC(=O)NC(=O)C2)CC(=O)N1,T/C,"endpoint: mean tumor weight, dose: 25.0 mg/kg/injection, schedule: Q01DX011 (ip), vehicle: steriod suspending solution, higher = larger tumour",68 % of control and 80 % of control
same,T/C,"endpoint: median survival time, dose: 12.5 mg/kg/injection, schedule: Q01DX011 (ip), vehicle: steriod suspending solution, higher = longer survival",111 % of control and 117 % of control
same,T/C,"endpoint: median survival time, dose: 25.0 mg/kg/injection, schedule: Q01DX011 (ip), vehicle: steriod suspending solution, higher = longer survival",110 % of control and 114 % of control
C[C@]12CC[C@H]3[C@@H](CC[C@]4(O)C[C@@H](O)CC[C@]34C=O)[C@@]1(O)CC[C@@H]2C1=CC(=O)OC1,T/C,[1],106 % of control
same,T/C,"endpoint: median survival time, dose: 50.0 mg/kg/injection, schedule: Q01DX011 (ip), vehicle: saline with Tween-80, higher = longer survival",115 % of control
